{"source": "paper PMC2680649", "about": "(International Journal of Molecular Sciences, 2009)", "key": {"[1]": {"biological_target": "T1, hER-α (Homo sapiens, UniProt P03372)", "T1 construct": "expressed in transfected cells; host or cells: HELN (HeLa carrying a stably transfected estrogen-responsive luciferase reporter)", "T1 sequence (P03372 whole entry)": "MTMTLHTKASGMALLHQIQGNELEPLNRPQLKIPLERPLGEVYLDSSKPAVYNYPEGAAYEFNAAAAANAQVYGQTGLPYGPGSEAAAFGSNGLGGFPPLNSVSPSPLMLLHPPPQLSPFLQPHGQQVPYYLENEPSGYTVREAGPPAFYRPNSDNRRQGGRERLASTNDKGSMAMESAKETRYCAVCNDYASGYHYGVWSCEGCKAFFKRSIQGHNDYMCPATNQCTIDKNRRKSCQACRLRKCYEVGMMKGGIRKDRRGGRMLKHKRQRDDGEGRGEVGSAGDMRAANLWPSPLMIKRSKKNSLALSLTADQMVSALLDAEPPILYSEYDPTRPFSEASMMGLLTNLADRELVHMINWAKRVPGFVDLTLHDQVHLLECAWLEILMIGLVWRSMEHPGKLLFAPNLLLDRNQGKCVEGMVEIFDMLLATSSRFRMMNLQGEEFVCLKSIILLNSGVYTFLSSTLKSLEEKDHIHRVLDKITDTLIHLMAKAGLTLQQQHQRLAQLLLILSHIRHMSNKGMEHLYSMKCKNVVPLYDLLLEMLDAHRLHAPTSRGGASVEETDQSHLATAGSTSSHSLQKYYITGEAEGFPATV", "assay": "cell-based", "assay_type": "cell-based"}, "[2]": {"biological_target": "T2, hER-β (Homo sapiens, UniProt Q92731)", "T2 construct": "expressed in transfected cells; host or cells: HELN (HeLa carrying a stably transfected estrogen-responsive luciferase reporter)", "T2 sequence (Q92731 whole entry)": "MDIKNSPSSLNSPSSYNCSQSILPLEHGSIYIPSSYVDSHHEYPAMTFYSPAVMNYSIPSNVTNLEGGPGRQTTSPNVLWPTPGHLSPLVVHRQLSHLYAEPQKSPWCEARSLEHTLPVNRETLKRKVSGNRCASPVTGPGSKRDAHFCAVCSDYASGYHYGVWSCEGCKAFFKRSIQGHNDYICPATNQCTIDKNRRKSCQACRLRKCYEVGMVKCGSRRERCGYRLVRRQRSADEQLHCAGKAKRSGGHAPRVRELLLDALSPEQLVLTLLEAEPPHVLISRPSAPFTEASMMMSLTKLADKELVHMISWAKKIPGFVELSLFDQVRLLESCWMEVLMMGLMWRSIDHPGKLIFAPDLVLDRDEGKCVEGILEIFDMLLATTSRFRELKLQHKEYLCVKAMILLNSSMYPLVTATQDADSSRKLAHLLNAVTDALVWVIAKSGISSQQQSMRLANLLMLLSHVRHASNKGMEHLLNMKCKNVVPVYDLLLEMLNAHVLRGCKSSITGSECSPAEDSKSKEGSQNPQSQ", "assay": "cell-based", "conditions": "read-out: EC50, half-maximal luciferase activity, transcriptional activation through ER β"}, "[3]": {"tested_on": "human ERα", "set-up": "method as in PMID 9751507", "conditions": "cells transfected with human ERα; cited from earlier work"}, "[4]": {"tested_on": "human ERβ", "set-up": "method as in PMID 9751507", "conditions": "cells transfected with human ERβ; cited from earlier work"}, "[5]": {"tested_on": "cytochrome P450", "assay_type": "in vitro ADME, rat"}, "[6]": {"assay": "In vitro metabolism of zearalenone, mouse liver microsomal preparation", "assay_type": "in vitro ADME, mouse (CD-1)", "conditions": "Mouse liver microsomes, 1 μM total P450, 50 μM ZEN, NADPH-generating system, pH 7.4, 30 min; n = 4", "text": "(§1) Monkeys (Cynomolgus, Macaca fascicularis), pig (Yucatan), dog (Beagle), rabbit (New Zealand), mouse (CD-1) and rat (Sprague Dawley) liver microsomes, rat 2C Supersomes® were purchased from Gentest (BD Biosciences, NJ, USA). Pools of human livers for female or male were purchased from Xenotech (Tebu-Bio, Le Perray en Yvelines, France). Human CYP Bactosomes® were provided by Cypex (Tebu-Bio, Le Perray en Yvelines, France)."}, "[7]": {"assay": "In vitro metabolism of zearalenone, rat liver microsomal preparation", "assay_type": "in vitro ADME, rat (Sprague Dawley)", "conditions": "Rat (untreated) liver microsomes, 1 μM total P450, 50 μM ZEN, NADPH-generating system, pH 7.4, 30 min; n = 4", "text": "as §1"}, "[8]": {"assay": "In vitro metabolism of zearalenone, rabbit liver microsomal preparation", "assay_type": "in vitro ADME, rabbit (New Zealand)", "conditions": "Rabbit liver microsomes, 1 μM total P450, 50 μM ZEN, NADPH-generating system, pH 7.4, 30 min; n = 4", "text": "as §1"}, "[9]": {"assay": "In vitro metabolism of zearalenone, dog liver microsomal preparation", "assay_type": "in vitro ADME, dog (Beagle)", "conditions": "Dog liver microsomes, 1 μM total P450, 50 μM ZEN, NADPH-generating system, pH 7.4, 30 min; n = 4", "text": "as §1"}, "[10]": {"assay": "In vitro metabolism of zearalenone, pig liver microsomal preparation", "assay_type": "in vitro ADME, pig (Yucatan)", "conditions": "Pig liver microsomes, 1 μM total P450, 50 μM ZEN, NADPH-generating system, pH 7.4, 30 min; n = 4", "text": "as §1"}, "[11]": {"assay": "In vitro metabolism of zearalenone, Cynomolgus monkey liver microsomal preparation", "assay_type": "in vitro ADME, Macaca fascicularis", "conditions": "Cynomolgus monkey liver microsomes, 1 μM total P450, 50 μM ZEN, NADPH-generating system, pH 7.4, 30 min; n = 4", "text": "as §1"}, "[12]": {"assay": "In vitro metabolism of zearalenone, human female liver microsomal preparation", "assay_type": "in vitro ADME", "conditions": "Human Female liver microsomes, 1 μM total P450, 50 μM ZEN, NADPH-generating system, pH 7.4, 30 min; n = 4", "text": "as §1"}, "[13]": {"assay": "In vitro metabolism of zearalenone, human male liver microsomal preparation", "assay_type": "in vitro ADME", "conditions": "Human Male liver microsomes, 1 μM total P450, 50 μM ZEN, NADPH-generating system, pH 7.4, 30 min; n = 4", "text": "as §1"}, "[14]": {"assay": "ZEN incubation with rat liver cytosolic fraction", "conditions": "rat liver cytosol, presence of NADPH"}, "[15]": {"assay": "ZEN incubation with rat liver post-mitochondrial fraction (S9)"}, "[16]": {"assay": "In vitro metabolism of zearalenone, PB-treated rat liver microsomal preparation", "conditions": "PB-treated rat liver microsomes, 1 μM total P450, 50 μM ZEN, NADPH-generating system, pH 7.4, 30 min; n = 4"}}, "note": "Read-outs that look alike come from different tables or passages of the source."}
{"molecule": "C[C@H]1CCCC(=O)CCC/C=C/c2cc(O)cc(O)c2C(=O)O1", "note": "[ZEN, (3S,11E)-3,4,5,6,9,10-Hexahydro-14,16-dihydroxy-3-methyl-1H-2-benzoxacyclotetradecin-1,7(8H)-dione]", "values": [{"measurement": "EC50", "setting": "[1]", "value": "11.8 ± 1.9", "unit": "nM"}, {"measurement": "EC50", "setting": "[2]", "value": "11.5 ± 2.5", "unit": "nM"}, {"measurement": "agonist character for ERα", "setting": "[3]", "value": "full agonist"}, {"measurement": "agonist character for ERβ", "setting": "[4]", "value": "partial agonist"}]}
{"molecule": "[C-]#[O+]", "note": "[carbon monoxide]", "values": [{"measurement": "effect on formation of OH-ZEN", "setting": "[5]; carbon monoxide", "value": "inhibited"}]}
{"molecule": "CC(=O)N1CCN(c2ccc(OCC3COC(Cn4ccnc4)(c4ccc(Cl)cc4Cl)O3)cc2)CC1", "note": "(stereo not shown) [ketoconazole]", "values": [{"measurement": "effect on formation of OH-ZEN", "setting": "[5]", "value": "inhibited"}]}
{"molecule": "C[C@H]1CCC[C@H](O)CCC/C=C/c2cc(O)cc(O)c2C(=O)O1", "note": "[α-ZOL, α-zearalenol]", "values": [{"measurement": "formation rate of ZEN metabolite", "setting": "[6]", "value": "41.3 ± 11.5", "unit": "nmoles/30 min/nmole P450"}, {"measurement": "formation rate of ZEN metabolite", "setting": "[7]", "value": "14.7 ± 2.5", "unit": "nmoles/30 min/nmole P450"}, {"measurement": "formation rate of ZEN metabolite", "setting": "[8]", "value": "2.5 ± 0.4", "unit": "nmoles/30 min/nmole P450"}, {"measurement": "formation rate of ZEN metabolite", "setting": "[9]", "value": "2.8 ± 0.3", "unit": "nmoles/30 min/nmole P450"}, {"measurement": "formation rate of ZEN metabolite", "setting": "[10]", "value": "7.4 ± 0.6", "unit": "nmoles/30 min/nmole P450"}, {"measurement": "formation rate of ZEN metabolite", "setting": "[11]", "value": "4.0 ± 0.4", "unit": "nmoles/30 min/nmole P450"}, {"measurement": "formation rate of ZEN metabolite", "setting": "[12]", "value": "3.3 ± 0.5", "unit": "nmoles/30 min/nmole P450"}, {"measurement": "formation rate of ZEN metabolite", "setting": "[13]", "value": "3.6 ± 0.3", "unit": "nmoles/30 min/nmole P450"}, {"measurement": "metabolite formed in cytosolic fraction", "setting": "[14]", "value": "formed"}]}
{"molecule": "C[C@H]1CCC[C@H](O)CCCCCc2cc(O)cc(O)c2C(=O)O1", "note": "[α–ZAL, α-zearalanol]", "values": [{"measurement": "EC50", "setting": "[1]; read-out: EC50, half-maximal luciferase activity, transcriptional activation through ER α, HELN ER-α cells, 16 h at 37 °C, maximal activity with 10 nM E2", "value": "0.49 ± 0.9", "unit": "nM"}]}
{"molecule": "β-zearalenol [β-ZOL]", "values": [{"measurement": "formation rate of ZEN metabolite", "setting": "[8]", "value": "1.9 ± 0.4", "unit": "nmoles/30 min/nmole P450"}, {"measurement": "formation rate of ZEN metabolite", "setting": "[10]", "value": "10.0 ± 1.8", "unit": "nmoles/30 min/nmole P450"}, {"measurement": "formation rate of ZEN metabolite", "setting": "[12]", "value": "0.3 ± 0.1", "unit": "nmoles/30 min/nmole P450"}, {"measurement": "metabolite formed in cytosolic fraction", "setting": "[14]", "value": "formed"}, {"measurement": "metabolite found in post-mitochondrial incubation (fraction S9)", "setting": "[15]", "value": "in association with β-ZOL"}, {"measurement": "formation rate of ZEN metabolite", "setting": "[16]", "value": "3.3 ± 0.4", "unit": "nmoles/30 min/nmole P450"}]}
